Where two headings read alike, the source gives them in different places.
Columns and labels:
[1] = test system: mitochondrial membrane potential (ΔΨm); test: Membrane potential (ΔΨm) counterscreen with TMRM; conditions: malate, nigericin
[2] = target: T1, flavin binding site of complex I (IF) (Rattus norvegicus, UniProt Q5XIH3); test: High-throughput screen: ROS production from flavin binding site of complex I (IF); assay type: biochemical
T1 construct: freshly isolated muscle mitochondria were assayed; from tissue; host or cells: rat skeletal muscle mitochondria (Wistar, Harlan Laboratories)
T1 sequence (Q5XIH3 21-464 limits assumed, one chain of several): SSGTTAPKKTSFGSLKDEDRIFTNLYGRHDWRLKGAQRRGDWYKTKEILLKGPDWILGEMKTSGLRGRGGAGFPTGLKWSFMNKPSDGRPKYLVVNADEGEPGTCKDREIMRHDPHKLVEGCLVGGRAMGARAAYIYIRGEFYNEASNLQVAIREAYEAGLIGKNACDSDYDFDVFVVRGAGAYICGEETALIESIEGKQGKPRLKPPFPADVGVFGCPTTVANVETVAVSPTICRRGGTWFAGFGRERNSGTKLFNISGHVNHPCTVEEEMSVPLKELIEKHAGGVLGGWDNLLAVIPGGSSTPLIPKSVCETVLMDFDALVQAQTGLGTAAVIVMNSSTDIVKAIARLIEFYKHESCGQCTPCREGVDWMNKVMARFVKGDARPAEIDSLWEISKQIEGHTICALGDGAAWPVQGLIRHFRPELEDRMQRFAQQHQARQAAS

[3] = target: T2, glycerol-3-phosphate dehydrogenase (GPDH) (Rattus norvegicus, UniProt P35571); test: High-throughput screen: ROS production from glycerol-3-phosphate dehydrogenase (GPDH); assay type: biochemical; design: inhibition: dose or concentration left out as unconfirmed; conditions: percent change in ROS from DMSO controls; for inhibition: Table 7
T2 construct: The activity of GPDH in intact mitochondria (0.3 mg/mL) was measured; from tissue; host or cells: rat skeletal muscle mitochondria (Wistar, Harlan Laboratories)
T2 sequence (P35571 43-727): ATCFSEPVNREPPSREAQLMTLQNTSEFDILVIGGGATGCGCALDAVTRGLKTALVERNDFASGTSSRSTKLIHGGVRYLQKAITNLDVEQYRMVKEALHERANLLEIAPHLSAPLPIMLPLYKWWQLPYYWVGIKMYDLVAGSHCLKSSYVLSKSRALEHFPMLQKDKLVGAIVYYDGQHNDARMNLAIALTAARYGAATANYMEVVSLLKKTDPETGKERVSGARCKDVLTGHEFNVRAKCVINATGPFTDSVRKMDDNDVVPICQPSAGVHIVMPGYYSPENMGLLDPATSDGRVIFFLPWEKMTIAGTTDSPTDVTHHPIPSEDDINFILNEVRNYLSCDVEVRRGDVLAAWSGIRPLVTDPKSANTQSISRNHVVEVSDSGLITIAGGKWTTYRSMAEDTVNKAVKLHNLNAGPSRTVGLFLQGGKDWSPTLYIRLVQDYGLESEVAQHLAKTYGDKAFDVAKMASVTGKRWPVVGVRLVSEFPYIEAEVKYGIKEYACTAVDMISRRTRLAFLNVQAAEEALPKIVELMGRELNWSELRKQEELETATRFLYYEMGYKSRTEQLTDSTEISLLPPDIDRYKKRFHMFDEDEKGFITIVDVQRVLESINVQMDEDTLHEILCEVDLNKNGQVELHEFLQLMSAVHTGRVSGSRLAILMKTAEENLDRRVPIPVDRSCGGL

[4] = test system: ubiquinone binding site of complex I (IQ); test: High-throughput screen: ROS production from ubiquinone binding site of complex I (IQ), isolated skeletal muscle mitochondria; assay type: biochemical, rat; conditions: for % Reduction in ROS production (IQ): Table 2, 5 mM succinate, compounds 2.5 μM, percent change from DMSO, positive control −100%; for IQ: percent change in ROS from DMSO controls
Procedure: (§1) Skeletal muscle mitochondria were isolated from 5-8 week old female Wistar rats (Harlan Laboratories). Minced muscle was homogenized in buffer containing bacterial protease Type VIII prior to differential centrifugation to separate mitochondria from other tissue components. Unless otherwise stated, freshly isolated muscle mitochondria were assayed in buffer containing 120 mM KCl, 5 mM HEPES, 1 mM EGTA, 0.3% (w/v) bovine serum albumin. Where indicated, CaCl2 was added to yield a final free concentration of 250 nM calcium at pH 7.0 at 37° C.
(§2) Compounds (10 mM in DMSO) were randomly selected from a library of 24,000 compounds obtained from ChemBridge and curated by the lab of Robert Hughes at the Buck Institute. Master screening plates were prepared using a Biomek FX liquid handling workstation (Beckman) to transfer 1 μL of each compound into individual wells on 96-well storage plates (80 compounds per plate). Master plates were sealed with foil and stored at −80° C. Just prior to use, plates were brought to room temperature and diluted 300-fold with standard buffer (13.3X=33.3 μM). To monitor the performance of each assay throughout screening and to provide intra-plate normalization reference points, DMSO negative controls and known mitochondrial inhibitor positive controls were included on each Master compound plate.
(§3) Total amounts of superoxide and H2O2 production were determined fluorometrically as H2O2, without distinguishing between them, in the presence of exogenous superoxide dismutase (25 units/mL final), horseradish peroxidase (1 unit/mL final), and Amplex UltraRed (25 μM final) as described (Affourtit, C. et al. (2012) Measurement of proton leak and electron leak in isolated mitochondria. Methods Mol. Biol. 810: 165-82). Just prior to use, a bulk 3.3X solution was made in standard buffer and distributed into a 2 mL deep well 96-well transfer plate.
To assess the effects of a compound on ROS production from the ubiquinone binding site of complex I (IQ), Start Solution containing 5 mM succinate was distributed into standard 96-well transfer plates. A Biomek FX workstation was programmed to dispense solutions into black 96-well assay plates. Solutions were dispensed to all assay plates in the following order: ROS Detection solution described in Example 3, Mitochondria solution described in Example 1 to a final concentration of 0.1 mg/ml, and Compound dilutions described in Example 2. Duplicate assay plates were made and each was initiated by the addition of 3.3X Start solution containing 5 mM succinate. Plates were incubated in the dark at room temperature for 30-40 minutes before acquiring endpoint fluorescence using a Victor 3V plate reader (Perkin Elmer) equipped with 550/590 nm excitation/emission filters.
The fluorescence values in each well were scaled as the percent change from the intra-plate DMSO controls with the appropriate inhibitor positive controls defined as −100%. Following initial scaling, intra-plate normalized values were subjected to Tukey's two-way median polish to remove row and column dependent positional effects (Malo et al, 2006).

[5] = target: T3, outer ubiquinone binding site of complex III (IIIQO) (Rattus norvegicus, UniProt P00159+P20788); test: High-throughput screen: ROS production from outer ubiquinone binding site of complex III (IIIQO); assay type: biochemical; conditions: percent change in ROS from DMSO controls; for IIIQO: Table 8
T3 construct: freshly isolated muscle mitochondria were assayed; from tissue; host or cells: rat skeletal muscle mitochondria (Wistar, Harlan Laboratories)
Procedure: as §1, §2, §3
To assess the effects of a compound on ROS production from the outer ubiquinone binding site of complex III (IIIQO), Start Solution containing 5 mM succinate, 4 μM rotenone and 2.5 μM antimycin A was distributed into standard 96-well transfer plates. A Biomek FX workstation was programmed to dispense solutions into black 96-well assay plates. Solutions were dispensed to all assay plates in the following order: ROS Detection solution described in Example 3, Mitochondria solution described in Example 1 to a final concentration of 0.1 mg/ml, and Compound dilutions described in Example 2. Duplicate assay plates were made and each was initiated by the addition of 3.3X Start solution containing 5 mM succinate, 4 μM rotenone and 2.5 μM antimycin A. Plates were incubated in the dark at room temperature for 30-40 minutes before acquiring endpoint fluorescence using a Victor 3V plate reader (Perkin Elmer) equipped with 550/590 nm excitation/emission filters.
(§4) The fluorescence values in each well were scaled as the percent change from the intra-plate DMSO controls with the appropriate inhibitor positive controls defined as −100%. Following initial scaling, intra-plate normalized values were subjected to Tukey's two-way median polish to remove row and column dependent positional effects (Malo et al., 2006).

[6] = target: T4, succinate dehydrogenase/complex II (SDH) (Rattus norvegicus, UniProt P21913+Q641Z9+Q6PCT8+Q920L2); test: High-throughput screen: ROS production from succinate dehydrogenase/complex II (SDH); assay type: biochemical; conditions: percent change in ROS from DMSO controls; for inhibition at 2.5 µM: Table 7
T4 construct: freshly isolated muscle mitochondria were assayed; from tissue; host or cells: rat skeletal muscle mitochondria (Wistar, Harlan Laboratories)
T4 sequence (Q920L2 35-656): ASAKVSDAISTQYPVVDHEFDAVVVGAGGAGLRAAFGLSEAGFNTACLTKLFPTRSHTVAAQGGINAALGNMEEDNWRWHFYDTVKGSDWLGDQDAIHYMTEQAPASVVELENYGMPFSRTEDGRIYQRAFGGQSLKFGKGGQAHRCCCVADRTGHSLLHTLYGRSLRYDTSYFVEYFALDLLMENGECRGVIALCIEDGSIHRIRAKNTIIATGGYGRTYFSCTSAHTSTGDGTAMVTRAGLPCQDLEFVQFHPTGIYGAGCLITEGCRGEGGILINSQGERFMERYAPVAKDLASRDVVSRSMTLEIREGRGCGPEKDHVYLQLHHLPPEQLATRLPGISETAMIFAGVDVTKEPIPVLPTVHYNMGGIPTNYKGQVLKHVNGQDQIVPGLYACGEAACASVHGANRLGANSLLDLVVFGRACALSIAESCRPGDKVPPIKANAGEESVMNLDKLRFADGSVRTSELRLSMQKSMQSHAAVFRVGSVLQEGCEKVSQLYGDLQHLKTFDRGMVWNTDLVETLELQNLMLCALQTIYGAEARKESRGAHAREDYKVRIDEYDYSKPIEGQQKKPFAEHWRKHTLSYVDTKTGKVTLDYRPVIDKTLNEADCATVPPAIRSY
T4 sequence (P21913 31-282): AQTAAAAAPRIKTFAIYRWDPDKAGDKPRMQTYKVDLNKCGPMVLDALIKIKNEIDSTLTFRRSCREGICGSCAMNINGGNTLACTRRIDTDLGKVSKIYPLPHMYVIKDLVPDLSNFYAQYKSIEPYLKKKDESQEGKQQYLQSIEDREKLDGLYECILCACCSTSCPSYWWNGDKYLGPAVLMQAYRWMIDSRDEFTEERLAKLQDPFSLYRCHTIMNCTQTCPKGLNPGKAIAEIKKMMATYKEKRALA
T4 sequence (Q641Z9 30-169 limits assumed): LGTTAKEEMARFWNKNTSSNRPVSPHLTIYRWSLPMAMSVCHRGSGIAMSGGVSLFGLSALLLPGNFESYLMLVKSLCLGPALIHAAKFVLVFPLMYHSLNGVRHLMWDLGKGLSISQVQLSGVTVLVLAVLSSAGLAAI
T4 sequence (Q6PCT8 57-159): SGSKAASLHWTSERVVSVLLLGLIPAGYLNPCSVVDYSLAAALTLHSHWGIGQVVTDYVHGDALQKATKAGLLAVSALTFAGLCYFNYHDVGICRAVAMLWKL
Procedure: as §1
Just prior to use, plates were brought to room temperature and diluted 300-fold with standard buffer (13.3X=33.3 μM). To monitor the performance of each assay throughout screening and to provide intra-plate normalization reference points, DMSO negative controls and known mitochondrial inhibitor positive controls were included on each Master compound plate.
as §3
To assess the effects of a compound on ROS production from succinate dehydrogenase/complex II (SDH), Start Solution containing 15 μM palmitoyl carnitine, 2.5 μM antimycin A and 2 μM myxothiazol was distributed into standard 96-well transfer plates. A Biomek FX workstation was programmed to dispense solutions into black 96-well assay plates. Solutions were dispensed to all assay plates in the following order: ROS Detection solution described in Example 3, Mitochondria solution described in Example 1 to a final concentration of 0.3 mg/ml, and Compound dilutions described in Example 2. Duplicate assay plates were made and each was initiated by the addition of 3.3X Start solution containing 15 μM palmitoyl carnitine, 2.5 μM antimycin A and 2 μM myxothiazol. Plates were incubated in the dark at room temperature for 30-40 minutes before acquiring endpoint fluorescence using a Victor 3V plate reader (Perkin Elmer) equipped with 550/590 nm excitation/emission filters.
as §4

[7] = Table 7, percent change in ROS from DMSO controls, read-out: IF
[8] = Table 8, percent change in ROS from DMSO controls
[9] = Table 9, percent change in ROS from DMSO controls

Row | SMILES | inhibition [3] | GPDH ([3]; Table 8) | GPDH ([3]; Table 9) | inhibition at 2.5 µM ([5]; Table 7, read-out: IIIQO) | IIIQO [5] | inhibition at 2.5 µM ([5]; Table 9, read-out: IIIQo) | inhibition at 2.5 µM [6] | SDH ([6]; Table 8) | SDH ([6]; Table 9) | ΔΨm ([1]; Table 8, glutamate) | ΔΨm ([1]; Table 9, glutamate) | inhibition at 2.5 µM [2, 7] | IF [2, 8] | IF [2, 9] | % Reduction in ROS production (IQ) [4] | IQ ([4]; Table 7) | IQ ([4]; Table 8) | IQ ([4]; Table 9) | inhibition at 2.5 µM ([2]; Table 3, 5 mM glutamate, 5 mM malate, 4 μM rotenone, compounds 2.5 μM, percent change from DMSO, positive control −100%, read-out: % Reduction in ROS production (IF))
1 | CC(C)Cc1ccc(C(C)C(=O)Nc2ccccc2O)cc1 (stereo not drawn) [Compound 5] | -0.7% | 0.7 | 0.7 | 3.6% | −3.6 | 3.6% | -2.3% | 2.3 | 2.3 | −3.5 | −3.5 | -0.2% | 0.2 | 0.2 | −40.0% | −40.0 | −40.0 | −40.0 | –
2 | Cc1ccc(NS(=O)(=O)c2ccc(C3CCCCC3)cc2)cc1 [Compound 6] | 2.3% | −2.3 | −2.3 | 3.4% | −3.4 | 3.4% | 1.1% | −1.1 | −1.1 | 0.0 | 0.0 | -3.6% | 3.6 | 3.6 | −38.6% | −38.6 | −38.6 | −38.6 | –
3 | C=CCSc1nc(N)c(C#N)c(CC)c1C#N [Compound 7] | -5.6% | 5.6 | 5.6 | -9.2% | 9.2 | -9.2% | -2.1% | 2.1 | 2.1 | −0.5 | −0.5 | -1.3% | 1.3 | 1.3 | −36.5% | −36.5 | −36.5 | −36.5 | –
4 | O=S(=O)(Nc1ccc(Br)cc1)c1ccc(C2CCCCC2)cc1 [Compound 8] | 1.8% | −1.8 | −1.8 | -7.6% | 7.6 | -7.6% | -0.4% | 0.4 | 0.4 | −0.3 | −0.3 | 4.2% | −4.2 | −4.2 | −36.3% | −36.3 | −36.3 | −36.3 | –
5 | Cc1ccccc1NS(=O)(=O)c1ccc(C2CCCCC2)cc1 [Compound 9] | -1% | 1.0 | 1.0 | 2.7% | −2.7 | 2.7% | -0.3% | 0.3 | 0.3 | −0.1 | −0.1 | -0.4% | 0.4 | 0.4 | −31.2% | −31.2 | −31.2 | −31.2 | –
6 | CC(=O)Nc1ccc(S(=O)(=O)Nc2cccc(C)c2)cc1 [Compound 10] | 4.3% | −4.3 | −4.3 | 2.8% | −2.8 | 2.8% | -1% | 1.0 | 1.0 | −0.2 | −0.2 | -3.3% | 3.3 | 3.3 | −24.1% | −24.1 | −24.1 | −24.1 | –

Now from value to compound, other results behind:

Row | inhibition [3] | GPDH ([3]; Table 8) | GPDH ([3]; Table 9) | inhibition at 2.5 µM ([5]; Table 7, read-out: IIIQO) | IIIQO [5] | inhibition at 2.5 µM ([5]; Table 9, read-out: IIIQo) | inhibition at 2.5 µM [6] | SDH ([6]; Table 8) | SDH ([6]; Table 9) | SMILES | ΔΨm ([1]; Table 8, glutamate) | ΔΨm ([1]; Table 9, glutamate) | inhibition at 2.5 µM [2, 7] | IF [2, 8] | IF [2, 9] | % Reduction in ROS production (IQ) [4] | IQ ([4]; Table 7) | IQ ([4]; Table 8) | IQ ([4]; Table 9) | inhibition at 2.5 µM ([2]; Table 3, 5 mM glutamate, 5 mM malate, 4 μM rotenone, compounds 2.5 μM, percent change from DMSO, positive control −100%, read-out: % Reduction in ROS production (IF))
7 | 5% | −5.0 | −5.0 | 1.9% | −1.9 | 1.9% | 0.2% | −0.2 | −0.2 | COc1ccc(NS(=O)(=O)c2cccc(C(=O)Nc3ccc(C)cc3)c2)cc1 [Compound 11] | −0.4 | −0.4 | -3.3% | 3.3 | 3.3 | −23.8% | −23.8 | −23.8 | −23.8 | –
8 | -0.5% | 0.5 | 0.5 | -0.2% | 0.2 | -0.2% | 0.1% | −0.1 | −0.1 | Cc1ccccc1NS(=O)(=O)c1ccc(-c2ccc(S(=O)(=O)Nc3ccccc3C)cc2)cc1 [Compound 12] | −0.5 | −0.5 | 1.7% | −1.7 | −1.7 | −20.7% | −20.7 | −20.7 | −20.7 | –
9 | 1.2% | −1.2 | −1.2 | 9% | −9.0 | 9% | 2.8% | −2.8 | −2.8 | CC1=CC(C)C(C2OCC(CN3CCCCC3)O2)C(C)C1 (stereo not drawn) [Compound 13] | −0.5 | −0.5 | 39% | −39.0 | −39.0 | – | 0.1 | 0.1 | 0.1 | 39%

From patent US20140128352A1, “COMPOUNDS AND METHODS FOR MODULATING MITOCHONDRIAL METABOLISM AND REACTIVE OXYGEN SPECIES PRODUCTION” (Buck Institute for Research on Aging, priority 2012, published 2014)
